The text below walks through data of patent publication US11008323B2, “Substituted tricyclic 1,4-benzodiazepinone derivatives as allosteric modulators of group II metabotropic glutamate receptors” (Domain Therapeutics, priority 2015, dated 2021).

One data set addresses T1, human mGluR3 (hmGluR3) (Homo sapiens, UniProt Q14832).
T1 construct: expressed in transfected cells; host or cells: HEK-293 cells, transient co-transfection by electroporation
Description: Human mGluR3 positive allosteric modulator evaluation using Ca++ functional assay. The settings on record: hmGluR3 transiently over-expressed in HEK-293 cells; stimulated by EC50 glutamate concentration; intracellular Ca2+ (Fluo4AM, FLIPR Tetra). Type of data set: cell-based. In a few lines:
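HEK-293 cells transiently co-expressing hmGluR3, a chimeric G protein and two glutamate transporters; Fluo4 calcium read on FLIPR. Compound alone for 10 min (agonist), then EC50 glutamate for 3 min (PAM); 20-point curves gave EC50, duplicate, two independent runs.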

The structures appear in SMILES notation. Where a name gives a salt, the structure may show the parent alone.

T1 sequence (Q14832 23-879): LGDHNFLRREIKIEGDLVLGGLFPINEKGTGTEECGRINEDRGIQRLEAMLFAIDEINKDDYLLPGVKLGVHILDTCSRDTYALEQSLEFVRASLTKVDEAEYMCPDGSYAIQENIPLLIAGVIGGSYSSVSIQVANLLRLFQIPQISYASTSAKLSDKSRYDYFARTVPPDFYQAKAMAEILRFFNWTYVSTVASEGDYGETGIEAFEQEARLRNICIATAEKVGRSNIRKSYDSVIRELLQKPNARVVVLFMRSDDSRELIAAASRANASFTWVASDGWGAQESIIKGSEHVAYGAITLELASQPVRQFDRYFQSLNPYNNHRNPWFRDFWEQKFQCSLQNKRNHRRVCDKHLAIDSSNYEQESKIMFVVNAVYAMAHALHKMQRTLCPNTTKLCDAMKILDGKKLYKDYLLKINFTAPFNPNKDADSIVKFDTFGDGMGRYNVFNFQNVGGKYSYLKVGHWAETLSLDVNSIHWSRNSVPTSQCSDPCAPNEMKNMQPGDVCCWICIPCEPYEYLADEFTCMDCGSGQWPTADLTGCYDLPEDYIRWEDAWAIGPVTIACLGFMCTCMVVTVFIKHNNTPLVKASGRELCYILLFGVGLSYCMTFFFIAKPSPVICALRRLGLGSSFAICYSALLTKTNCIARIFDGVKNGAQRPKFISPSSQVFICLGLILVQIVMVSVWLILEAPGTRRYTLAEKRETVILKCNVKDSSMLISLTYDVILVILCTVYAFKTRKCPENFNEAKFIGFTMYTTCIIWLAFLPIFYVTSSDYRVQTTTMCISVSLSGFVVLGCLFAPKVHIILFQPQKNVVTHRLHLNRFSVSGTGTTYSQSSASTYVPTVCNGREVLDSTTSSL

In general, melting point refers to the temperature, or range, at which the solid turns liquid. With `Cc1ncccc1-c1ccc2c(c1)-n1cccc1C(=O)N(C)C2C` (stereo not drawn) (as salt: hydrochloride) [Example 218, 5,6-Dimethyl-9-(2-methyl-pyridin-3-yl)-5,6-dihydro-benzo[f]pyrrolo[1,2-a][1,4]diazepin-4-one], the melting point was 140 to 156 °C.

Take `Cc1ncncc1-c1ccc2c(c1)-n1cccc1C(=O)N(C)C21CC1` (as salt: hydrochloride) [Example 59, 5-Methyl-9-(4-methyl-pyrimidin-5-yl)-spiro[benzo[f]pyrrolo[1,2-a][1,4]diazepine-6,1′-cyclopropan]-4(5H)-one]: the melting point was 140 to 147 °C.

As for `Cc1ncccc1-c1ccc2c(c1)-n1cc(-c3ccnn3C)cc1C(=O)N(C)C21CC1` (as salt: hydrochloride) [Example 160], the melting point lay within 229 to 237 °C.

`CCc1ncccc1-c1ccc2c(c1)-n1cccc1C(=O)N(C)C21CC1` (as salt: hydrochloride) [Example 24, 5-Methyl-9-(2-ethylpyridin-3-yl)-spiro[benzo[f]pyrrolo[1,2-a][1,4]diazepine-6,1′-cyclopropan]-4(5H)-one] came in with a melting point of 136 to 143 °C.

The compound `Cc1ccc(-c2ccc3c(c2)-n2cccc2C(=O)N(C)C32CC2)c(C)n1` (as salt: hydrochloride) [Example 56, 5-Methyl-9-(2,6-dimethylpyridin-3-yl)-spiro[benzo[f]pyrrolo[1,2-a][1,4]diazepine-6,1′-cyclopropan]-4(5H)-one] had a melting point of over 250 °C.

`CN(C)c1ccc(-c2ccc3c(c2)-n2cc(-c4ccccc4)cc2C(=O)N(C)C32CC2)cn1` (as salt: hydrochloride) [Example 114, 5-Methyl-2-phenyl-9-(6-dimethylamino-pyridin-3-yl)-spiro[benzo[f]pyrrolo[1,2-a][1,4]diazepine-6,1′-cyclopropan]-4(5H)-one] yielded a melting point of 200 to 208 °C.

In turn, `Cc1ncccc1-c1ccc2c(c1)-n1cc(-c3cnco3)cc1C(=O)N(C)C21CC1` (as salt: hydrochloride) [Example 182] had a melting point of 158 to 168 °C.

`CCc1ncccc1-c1ccc2c(c1)-n1cc(CO)cc1C(=O)N(C)C21CC1` (as salt: hydrochloride) [Example 203] gave a melting point of over 250 °C.

The compound `Cc1ccc(-c2ccc3c(c2)-n2cc(-c4ccccc4)cc2C(=O)N(C)C32CC2)cn1` (as salt: hydrochloride) [Example 103, 5-Methyl-2-phenyl-9-(6-methyl-pyridin-3-yl)-spiro[benzo[f]pyrrolo[1,2-a][1,4]diazepine-6,1′-cyclopropan]-4(5H)-one] displayed a melting point of 200 to 215 °C.

On to `Cc1cc(-c2ccc3c(c2)-n2cccc2C(=O)N(C)C32CC2)ccn1` (as salt: hydrochloride) [Example 26, 5-Methyl-9-(2-methylpyridin-4-yl)-spiro[benzo[f]pyrrolo[1,2-a][1,4]diazepine-6,1′-cyclopropan]-4(5H)-one], for which the melting point is 183 to 193 °C.

In the case of `CN1C(=O)c2cccn2-c2cc(C3=CCNCC3)ccc2C12CC2` (as salt: hydrochloride) [Example 46, 5-Methyl-9-(1,2,3,6-tetrahydro-pyridin-4-yl)-spiro[benzo[f]pyrrolo[1,2-a][1,4]diazepine-6,1′-cyclopropan]-4(5H)-one], the melting point was 208 to 215 °C.

Regarding `Cc1ccc(-c2ccc3c(c2)-n2cc(-c4nccs4)cc2C(=O)N(C)C32CC2)cn1` (as salt: hydrochloride) [Example 158], the melting point is 228 to 239 °C.

In turn, `Cc1ncccc1-c1ccc2c(c1)-n1cc(-c3ccncc3)cc1C(=O)N(C)C21CC1` (as salt: hydrochloride) [Example 145] had a melting point of over 250 °C.

`Cc1ncccc1-c1ccc2c(c1)-n1cc(-c3cnc[nH]3)cc1C(=O)N(C)C21CC1` (as salt: hydrochloride) [Example 183] came in with a melting point of over 250 °C.

`CCc1ccc(-c2ccc3c(c2)-n2cc(-c4ccccc4)cc2C(=O)N(C)C32CC2)cn1` (as salt: hydrochloride) [Example 112, 5-methyl-2-phenyl-9-(6-ethylpyridin-3-yl)-spiro[benzo[f]pyrrolo[1,2-a][1,4]diazepine-6,1′-cyclopropan]-4(5H)-one] yielded a melting point of 209 to 212 °C.

`Cc1ccc(-c2ccc3c(c2)-n2nc(-c4ccccc4)cc2C(=O)N(C)C32CC2)c(C)n1` (as salt: hydrochloride) [Example 126, 9-(2,6-Dimethyl-pyridin-3-yl)-5-methyl-2-phenyl-spiro[benzo[f]pyrazolo[1,5-a][1,4]diazepine-6,1′-cyclopropan]-4(5H)-one]: the melting point was over 250 °C.

The compound `Cc1cc(-c2ccc3c(c2)-n2cc(-c4ccccc4)cc2C(=O)N(C)C32CC2)ccn1` (as salt: hydrochloride) [Example 105, 5-Methyl-2-phenyl-9-(2-methyl-pyridin-4-yl)-spiro[benzo[f]pyrrolo[1,2-a][1,4]diazepine-6,1′-cyclopropan]-4(5H)-one] showed a melting point of 225 to 235 °C.

As usually defined, the EC50 is the concentration that produces a half-maximal response. A lower EC50 goes with a more potent agent. Compound `CN(C)c1ccc2c(c1)-n1cc(-c3ccccc3)cc1C(=O)N(C)C21CC1` [Example 115, 9-Dimethylamino-5-methyl-2-phenyl-spiro[benzo[f]pyrrolo[1,2-a][1,4]diazepine-6,1′-cyclopropan]-4(5H)-one] registered a concentration for a half-maximal effect (EC50) on human mGluR3 (hmGluR3) of over 1 µM.

Take `CN1C(=O)c2cccn2-c2cc(-c3cnc(N)c(C(F)(F)F)c3)ccc2C12CC2` [Example 40, 5-Methyl-9-(6-amino-5-trifluoromethyl-pyridin-3-yl)-spiro[benzo[f]pyrrolo[1,2-a][1,4]diazepine-6,1′-cyclopropan]-4(5H)-one]: at human mGluR3 (hmGluR3), the EC50 was over 1 µM.

`Cc1ncccc1-c1ccc2c(c1)-n1cc(-c3ccncc3)cc1C(=O)N(C)C21CC1` [Example 145] registered a concentration for a half-maximal effect (EC50) at human mGluR3 (hmGluR3) of under 0.1 µM.

Take `CN1C(=O)c2cccn2-c2cc(-c3ccncc3)ccc2C12CC2` [Example 22, 5-Methyl-9-(pyridin-4-yl)-spiro[benzo[f]pyrrolo[1,2-a][1,4]diazepine-6,1′-cyclopropan]-4(5H)-one]: the EC50 on human mGluR3 (hmGluR3) lay in the range of 0.1 to 1 µM.

Compound `Cc1ncccc1-c1ccc2c(c1)-n1cc(-c3cnco3)cc1C(=O)N(C)C21CC1` [Example 182] displayed a concentration giving a half-maximal response (EC50) on human mGluR3 (hmGluR3) of under 0.1 µM.

On human mGluR3 (hmGluR3), `CCc1ncccc1-c1ccc2c(c1)-n1cc(CO)cc1C(=O)N(C)C21CC1` [Example 203] returned a half-maximal effective concentration (EC50) of 0.1 to 1 µM.

Take `CCC1c2ccc(-c3cccnc3C)cc2-n2cccc2C(=O)N1C` (stereo not drawn) [Example 220, 6-Ethyl-5-methyl-9-(2-methyl-pyridin-3-yl)-5,6-dihydro-benzo[f]pyrrolo[1,2-a][1,4]diazepin-4-one]: at human mGluR3 (hmGluR3), the concentration for a half-maximal effect (EC50) fell in the range of 0.1 to 1 µM.

`Cc1ncccc1-c1ccc2c(c1)-n1cc(-c3cccnc3)cc1C(=O)N(C)C21CC1` [Example 143] had a concentration for a half-maximal effect (EC50) at human mGluR3 (hmGluR3) of under 0.1 µM.

For the compound `CN1C(=O)c2cc(-c3ccccc3)cn2-c2cc(-c3cccnc3)ccc2C12CC2` [Example 93, 5-Methyl-2-phenyl-9-pyridin-3-yl-spiro[benzo[f]pyrrolo[1,2-a][1,4]diazepine-6,1′-cyclopropan]-4(5H)-one], the EC50 at human mGluR3 (hmGluR3) is under 0.1 µM.

`Cc1cc(-c2ccc3c(c2)-n2cccc2C(=O)N(C)C32CC2)ccn1` [Example 26, 5-Methyl-9-(2-methylpyridin-4-yl)-spiro[benzo[f]pyrrolo[1,2-a][1,4]diazepine-6,1′-cyclopropan]-4(5H)-one] displayed an EC50 at human mGluR3 (hmGluR3) of 0.1 to 1 µM.

Turning to `Cc1ncccc1-c1ccc2c(c1)-n1c(F)ccc1C(=O)N(C)C21CC1` [Example 81, 9-(2-Methyl-pyridin-3-yl)-1-fluoro-5-methyl-spiro[benzo[f]pyrrolo[1,2-a][1,4]diazepine-6,1′-cyclopropan]-4(5H)-one], the EC50 at human mGluR3 (hmGluR3) is under 0.1 µM.

Compound `Cc1cc2n(c1)-c1cc(-c3ccc(C)nc3)ccc1C1(CC1)N(C)C2=O` [Example 198] had a half-maximal effective concentration (EC50) at human mGluR3 (hmGluR3) of under 0.1 µM.

At human mGluR3 (hmGluR3), `CN(C)c1ncccc1-c1ccc2c(c1)-n1cc(-c3ccccc3)cc1C(=O)N(C)C21CC1` [Example 119, 5-Methyl-2-phenyl-9-(2-dimethylamino-pyridin-3-yl)-spiro[benzo[f]pyrrolo[1,2-a][1,4]diazepine-6,1′-cyclopropan]-4(5H)-one] had an EC50 of over 1 µM.

As to `CN1C(=O)c2cccn2-c2cc(Cl)ccc2C1(C)C` [Example 222, 9-Chloro-5,6,6-trimethyl-5,6-dihydro-benzo[f]pyrrolo[1,2-a][1,4]diazepin-4-one], on human mGluR3 (hmGluR3), the 50% effective concentration (EC50) is over 1 µM.

The compound `Cc1ccc(-c2ccc3c(c2)-n2cc(-c4ccccc4)cc2C(=O)N(C)C32CC2)c(C)n1` [Example 107, 5-Methyl-2-phenyl-9-(2,6-dimethyl-pyridin-3-yl)-spiro[benzo[f]pyrrolo[1,2-a][1,4]diazepine-6,1′-cyclopropan]-4(5H)-one] yielded an EC50 on human mGluR3 (hmGluR3) of under 0.1 µM.

`CN1C(=O)c2cccn2-c2cc(-c3cccnc3)ccc2C12CC2` [Example 23, 5-Methyl-9-(pyridin-3-yl)-spiro[benzo[f]pyrrolo[1,2-a][1,4]diazepine-6,1′-cyclopropan]-4(5H)-one] showed an EC50 at human mGluR3 (hmGluR3) of 0.1 to 1 µM.

For `Cc1ncccc1-c1ccc2c(c1)-n1nc(-c3ccccc3)cc1C(=O)N(C)C21CC1` [Example 125, 9-(2-Methyl-pyridin-3-yl)-5-methyl-2-phenyl-spiro[benzo[f]pyrazolo[1,5-a][1,4]diazepine-6,1′-cyclopropan]-4(5H)-one], the EC50 on human mGluR3 (hmGluR3) was under 0.1 µM.

Consider `Cc1ncccc1-c1ccc2c(c1)-n1cc(-c3ccccc3)cc1C(=O)N(C)C21CC1` [Example 95, 5-Methyl-2-phenyl-9-(2-methyl-pyridin-3-yl)-spiro[benzo[f]pyrrolo[1,2-a][1,4]diazepine-6,1′-cyclopropan]-4(5H)-one], for which the EC50 on human mGluR3 (hmGluR3) was under 0.1 µM.

Compound `Cc1ncccc1-c1ccc2c(c1F)-n1cccc1C(=O)N(C)C21CC1` [Example 75, 10-Fluoro-5-methyl-9-(2-methyl-pyridin-3-yl)-spiro[benzo[f]pyrrolo[1,2-a][1,4]diazepine-6,1′-cyclopropan]-4(5H)-one] gave a 50% effective concentration (EC50) on human mGluR3 (hmGluR3) of 0.1 to 1 µM.
